Results as given in patent US9873715B2, “Macrolides useful as anticancer agents” (PIERRE FABRE MEDICAMENT, priority 2013, dated 2018).

What was measured:
Type in all cases: cell-based
[1] = test system: BxPC3: human pancreatic adenocarcinoma cell line; experiment: cell survival (ATP-lite luminescence), BxPC3; details: BXPC-3, BxPC3, 48 hours incubation, read-out: EC50 for various tumor cell lines: BxPC3
Protocol: (§1) Molecules (I-1), (I-2) and (I-3) were identified during a test of antiproliferative activity on a metastatic melanoma cell line, WM266-4.
(§2) The cells are seeded in 96-well plates in phenol red-free RPMI 1640 medium (Seromed) to which is added 10% fetal calf serum (100 μl/well, 1·10^4 to 3·10^4 cells/ml depending on the line studied). After incubation for 24 hours at 37° C. in an incubator (5% CO2), the medium is replaced with the same medium further containing the compound to be tested (various concentrations are used) and then the plates are incubated for an additional 48 hours. Cell survival is evaluated by measuring luminescence after ATP release in the medium using the cell lysis solutions, luciferase and luciferin, included in the ATP-lite-M™ kit as recommended by the manufacturer (Packard, Rungis, France). Each experimental condition was tested at least three times in sextuplicate.

[2] = test system: Namalwa: Burkitt lymphoma cell line; experiment: cell survival (ATP-lite luminescence), Namalwa; details: 48 hours incubation, read-out: EC50 for various tumor cell lines: Namalwa
Protocol: as §1, §2

[3] = test system: LoVo: human colon adenocarcinoma cell line; experiment: cell survival (ATP-lite luminescence), LoVo; details: 48 hours incubation, read-out: EC50 for various tumor cell lines: LoVo
Protocol: as §1, §2

[4] = test system: SkoV3: human ovarian adenocarcinoma cell line; experiment: cell survival (ATP-lite luminescence), SkoV3; details: SK-OV-3, SkoV3, 48 hours incubation, read-out: EC50 for various tumor cell lines: SkoV3
Protocol: as §1, §2

[5] = test system: KB: human oral carcinoma cell line; experiment: cell survival (ATP-lite luminescence), KB; details: 48 hours incubation, read-out: EC50 for various tumor cell lines: KB
Protocol: as §1, §2

[6] = test system: KB-V1: vinblastine-resistant human cervix carcinoma cell line; experiment: cell survival (ATP-lite luminescence), KB-V1; details: KB-V1, 48 hours incubation, read-out: EC50 for various tumor cell lines: KB-V1
Protocol: as §1, §2

[7] = test system: A549: human lung adenocarcinoma cell line; experiment: cell survival (ATP-lite luminescence), A549; details: A549, 48 hours incubation, read-out: EC50 for various tumor cell lines: A549
Protocol: as §1, §2

SMILES	EC50 [1] [nM]	EC50 [2] [nM]	EC50 [3] [nM]	EC50 [4] [nM]	EC50 [5] [nM]	EC50 [6] [nM]	EC50 [7] [nM]
COCC1OC(OC2CC(OC)CC3C2C(C)=CC2/C=C/C=C/C(C)C(/C=C/c4nc(C(C)CCCC#N)oc4C)OC(=O)CC/C=C(C)\C=C\C23C)C(OC)C(O)C1O (stereo not drawn) [Molecule (I-1)]	0.22	0.31	0.04	36000	0.31	0.7	0.011
COCC1OC(OC2CC(OC)CC3C2C(C)=CC2/C=C/C=C/C(C)C(/C=C/c4nc(C(C)CCCC#N)oc4C)OC(=O)CC/C=C(C)\C=C\C23C)C(OC)C(OC2OCC(OC)C(O)C2O)C1O (stereo not drawn) [Molecule (I-2)]	0.21	0.36	0.011	1300	0.3	0.49	< 0.001
CNC(=O)OC1C(OC)COC(OC2C(O)C(COC)OC(OC3CC(OC)CC4C3C(C)=CC3/C=C/C=C/C(C)C(/C=C/c5nc(C(C)CCCC#N)oc5C)OC(=O)CC/C=C(C)\C=C\C34C)C2OC)C1O (stereo not drawn) [Molecule (I-3)]	0.012	0.32	< 0.01	320	0.024	0.73	< 0.001
